Data: the NIST ThermoML archive (doi:10.1016/j.jct.2015.12.017)

Assay: molar heat capacity at constant pressure
Conditions: 101.33 kPa

O=P([O-])([O-])[O-].[Co+2].[Cs+] [cesium cobalt(II) phosphate]
Conditions	molar heat capacity at constant pressure [J/K/mol]
304.98 K, Crystal 4, Vacuum adiabatic calorimetry	136.11
305.47 K, Crystal 4, Vacuum adiabatic calorimetry	136.19
306.97 K, Crystal 4, Vacuum adiabatic calorimetry	137.44
307.51 K, Crystal 4, Vacuum adiabatic calorimetry	137.6
308.95 K, Crystal 4, Vacuum adiabatic calorimetry	138.69
309.32 K, Crystal 4, Vacuum adiabatic calorimetry	139.1
310 K, Crystal 4, Vacuum adiabatic calorimetry	136.94
310.91 K, Crystal 4, Vacuum adiabatic calorimetry	142.43
311.46 K, Crystal 4, Vacuum adiabatic calorimetry	142.34
312.84 K, Crystal 4, Vacuum adiabatic calorimetry	144.42
313.4 K, Crystal 3, Vacuum adiabatic calorimetry	139.93
313.4 K, Crystal 4, Vacuum adiabatic calorimetry	137.85
313.44 K, Crystal 3, Vacuum adiabatic calorimetry	144.34
314.77 K, Crystal 3, Vacuum adiabatic calorimetry	143.84
315.42 K, Crystal 3, Vacuum adiabatic calorimetry	144.09
316.69 K, Crystal 3, Vacuum adiabatic calorimetry	142.51
317.39 K, Crystal 3, Vacuum adiabatic calorimetry	143.18
318.6 K, Crystal 3, Vacuum adiabatic calorimetry	141.68
319.35 K, Crystal 3, Vacuum adiabatic calorimetry	142.51
320 K, Crystal 3, Vacuum adiabatic calorimetry	142.34
320.51 K, Crystal 3, Vacuum adiabatic calorimetry	142.01
321.31 K, Crystal 3, Vacuum adiabatic calorimetry	142.84
322.4 K, Crystal 3, Vacuum adiabatic calorimetry	142.76
323.26 K, Crystal 3, Vacuum adiabatic calorimetry	143.42
324.27 K, Crystal 3, Vacuum adiabatic calorimetry	143.42
325.2 K, Crystal 3, Vacuum adiabatic calorimetry	144.09
326.14 K, Crystal 3, Vacuum adiabatic calorimetry	144.09
327.14 K, Crystal 3, Vacuum adiabatic calorimetry	144.59
327.98 K, Crystal 3, Vacuum adiabatic calorimetry	144.75
329.07 K, Crystal 3, Vacuum adiabatic calorimetry	145.09
330 K, Crystal 3, Vacuum adiabatic calorimetry	145.34
330.98 K, Crystal 3, Vacuum adiabatic calorimetry	145.59
332.87 K, Crystal 3, Vacuum adiabatic calorimetry	146
334.4 K, Crystal 3, Small sample (50 mg) DSC	146.33
334.77 K, Crystal 3, Vacuum adiabatic calorimetry	146.58
336.65 K, Crystal 3, Vacuum adiabatic calorimetry	147.08
336.9 K, Crystal 3, Small sample (50 mg) DSC	147.17
338.52 K, Crystal 3, Vacuum adiabatic calorimetry	147.5
339.4 K, Crystal 3, Small sample (50 mg) DSC	148
340 K, Crystal 3, Vacuum adiabatic calorimetry	147.91
340.21 K, Crystal 3, Vacuum adiabatic calorimetry	148
341.82 K, Crystal 3, Vacuum adiabatic calorimetry	148.41
341.9 K, Crystal 3, Small sample (50 mg) DSC	148
343.88 K, Crystal 3, Vacuum adiabatic calorimetry	149.08
344.4 K, Crystal 3, Small sample (50 mg) DSC	148.83
345.68 K, Crystal 3, Vacuum adiabatic calorimetry	149.58
346.9 K, Crystal 3, Small sample (50 mg) DSC	149.66
347.49 K, Crystal 3, Vacuum adiabatic calorimetry	150.08
349.26 K, Crystal 3, Vacuum adiabatic calorimetry	150.49
349.4 K, Crystal 3, Small sample (50 mg) DSC	150.49
350 K, Crystal 3, Small sample (50 mg) DSC	150.41
351.9 K, Crystal 3, Small sample (50 mg) DSC	151.32
354.4 K, Crystal 3, Small sample (50 mg) DSC	151.32
356.9 K, Crystal 3, Small sample (50 mg) DSC	152.15
359.4 K, Crystal 3, Small sample (50 mg) DSC	152.99
360 K, Crystal 3, Small sample (50 mg) DSC	152.74
361.9 K, Crystal 3, Small sample (50 mg) DSC	152.99
364.4 K, Crystal 3, Small sample (50 mg) DSC	152.99
366.9 K, Crystal 3, Small sample (50 mg) DSC	153.82
369.4 K, Crystal 3, Small sample (50 mg) DSC	154.65
370 K, Crystal 3, Small sample (50 mg) DSC	154.82
371.9 K, Crystal 3, Small sample (50 mg) DSC	155.48
374.4 K, Crystal 3, Small sample (50 mg) DSC	155.48
376.9 K, Crystal 3, Small sample (50 mg) DSC	156.31
379.4 K, Crystal 3, Small sample (50 mg) DSC	156.31
380 K, Crystal 3, Small sample (50 mg) DSC	156.73
381.9 K, Crystal 3, Small sample (50 mg) DSC	157.14
384.4 K, Crystal 3, Small sample (50 mg) DSC	157.14
386.9 K, Crystal 3, Small sample (50 mg) DSC	157.97
389.4 K, Crystal 3, Small sample (50 mg) DSC	157.97
390 K, Crystal 3, Small sample (50 mg) DSC	158.47
391.9 K, Crystal 3, Small sample (50 mg) DSC	158.81
394.4 K, Crystal 3, Small sample (50 mg) DSC	159.64
396.9 K, Crystal 3, Small sample (50 mg) DSC	159.64
399.4 K, Crystal 3, Small sample (50 mg) DSC	160.47
400 K, Crystal 3, Small sample (50 mg) DSC	160.14
401.9 K, Crystal 3, Small sample (50 mg) DSC	160.47
404.4 K, Crystal 3, Small sample (50 mg) DSC	161.3
406.9 K, Crystal 3, Small sample (50 mg) DSC	161.3
409.4 K, Crystal 3, Small sample (50 mg) DSC	161.3
410 K, Crystal 3, Small sample (50 mg) DSC	161.72
411.9 K, Crystal 3, Small sample (50 mg) DSC	162.13
414.4 K, Crystal 3, Small sample (50 mg) DSC	162.13
416.9 K, Crystal 3, Small sample (50 mg) DSC	162.96
419.4 K, Crystal 3, Small sample (50 mg) DSC	162.96
420 K, Crystal 3, Small sample (50 mg) DSC	163.13
421.9 K, Crystal 3, Small sample (50 mg) DSC	162.96
424.4 K, Crystal 3, Small sample (50 mg) DSC	163.8
426.9 K, Crystal 3, Small sample (50 mg) DSC	163.8
429.4 K, Crystal 3, Small sample (50 mg) DSC	164.63
430 K, Crystal 3, Small sample (50 mg) DSC	164.54
431.9 K, Crystal 3, Small sample (50 mg) DSC	164.63
434.4 K, Crystal 3, Small sample (50 mg) DSC	165.46
436.9 K, Crystal 3, Small sample (50 mg) DSC	165.46
439.4 K, Crystal 3, Small sample (50 mg) DSC	166.29
440 K, Crystal 3, Small sample (50 mg) DSC	165.96
441.9 K, Crystal 3, Small sample (50 mg) DSC	166.29
444.4 K, Crystal 3, Small sample (50 mg) DSC	167.12
446.9 K, Crystal 3, Small sample (50 mg) DSC	167.12
449.4 K, Crystal 3, Small sample (50 mg) DSC	167.12
450 K, Crystal 3, Small sample (50 mg) DSC	167.45
